Data reported in patent publication US20220331433A1, “NUCLEIC ACID-MEDIATED DELIVERY OF THERAPEUTICS” (The Regents of the University of California, priority 2019, published 2022).
Entries after “also recorded” stand apart in the source; their conditions may differ. Like-named read-outs stand apart in the source and are kept apart here.

Columns and labels:
[1] = Stability of DNA in water and PBS (TEM); format: physicochemical; conditions: [DNA] 6 μg/mL
Experimental: Stability of DNA in water and PBS. DNA was prepared in PBS and diluted in H2O and then imaged. Final [DNA]=6 μg/mL.

[2] = DNA degradation in 10% FBS/PBS (agarose gel); format: physicochemical; conditions: 37° C., 0 to 48 h, [DNA] 100 μg/mL
Experimental: DNA Degradation in 10% FBS/PBS. A 1% (w/v) agarose gel in 1×Tris Acetate EDTA (TAE) containing 1 μg/mL ethidium bromide was used to characterize the degradation of DNA in 10% FBS/PBS over 48 hours. DNA was incubated with serum-containing PBS at 37° C. over time. Samples were stored in −20° C. to stop enzymatic degradation from nucleases at each time point. The concentration of DNA=100 μg/mL. The gel was run at 100 V for 40 minutes and DNA was imaged on a UV transilluminator (Fotodyne, Heartland, Wis.).
DNA Degradation in 10% FBS/PBS. To determine the stability of the DNA to serum exposure, DNA (100 μg/mL) was incubated with serum-containing PBS at 37° C. over a time period of 0 to 48 h. Samples were stored in −20° C. to stop enzymatic degradation from nucleases at each time point. […] It is likely that the nucleases in the serum-containing media are contributing to the degradation of DNA. It is possible to infer a delayed release of DOX due to this degradation of DNA overtime in 10% FBS.

EL4 cells [3] = assay: EL4 cytotoxicity, MTT assay; format: cell-based
Experimental: EL4 Cytotoxicity. EL4 cells (ATCC, Rockville, Md.) were plated at 10 k cells per well in a 96-well plate. The plated cells were treated in triplicate for 24, 48, or 72 hours with a range of concentrations of 0.001 μg/mL DOX or DOX equivalent to 10 μg/mL, followed by cellular viability analysis via MTT assay. Cells were incubated at 37° C., 5% CO2, and 100% humidity.
EL4 cells were treated in triplicate for 24, 48, and 72 hours with a range of concentrations, followed by cellular viability analysis via an MTT assay.

[4] = Pharmacokinetics in EL4-challenged C57BL/6 mice; format: in vivo
Experimental: Pharmacokinetics. […] Blood samples were collected from the saphenous vein of the mice at each time point, spun down in a serum collection tube, and the resultant supernatant was analyzed in acidified alcohol for DOX fluorescence using the Multi-Mode reader.
The mice were 6-8-week-old female mice.

[5] = Acute toxicity survival in C57BL/6 mice; conditions: 40 mg/kg dose, n=7
EL4 cells [6] = assay: Endocytosis inhibition, EL4 cellular uptake; format: cell-based; conditions: inhibitors CPZ, Filipin III, EIPA, NaN3, PS2 or 4° C., 1 hour treatment
Experimental: Endocytosis Inhibition. EL4 DOX uptake from DOX or DOX/DNA treatment after exposure to inhibitors NaN3 (120 mM), PS2 (12 μg/mL), Filipin III (5 μg/mL), CPZ (20 μM), EIPA […], or 4° C. was measured using flow cytometry or spectrofluorimetry. Briefly, cells were primed for 15 minutes with the inhibitors before being treated for 1 hour with DOX or DOX/DNA. Cells containing DOX or DOX/DNA were counted with the flow cytometer using yellow fluorescence, and cells containing DOX/DNA were counted using spectrofluorimetry. Fluorescence was measured using a Guava® easyCyte™ Flow Cytometer (Millipore Sigma, Burlington, Mass.) or the Multi-Mode reader (Biotek Instruments, Winooski, Vt.).
Endocytosis inhibition and the effect on DOX/DNA and DOX uptake. The effect of inhibitors CPZ (20 μM), Fillipin III […], EIPA (20 μM), and various combinations thereof, or 4° C. on EL4 cellular uptake was evaluated for DOX/DNA (see FIG. 22). Chlorpromazine (CPZ) is a clathrin-dependent pathway inhibitor. […] The concentrations chosen for the assay were determined using a dose-response assay for each inhibitor.
DOX uptake by EL4 cells was tested with inhibitors: NaN3 (120 mM), PS2 (12 μg/mL), Filipin III (5 μg/mL), EIPA (20 μM), and 4° C. Uptake was measured using flow cytometry. […] Cells containing DOX were counted with the flow cytometer using yellow fluorescence.

[7] = Complete blood count and liver enzyme panel; format: in vivo; conditions: 20 mg/kg DOX or DOX equiv., tail vein, 24 h p.i., C57BL/6 mice, n=3
Experimental: Hematotoxicity and Liver Enzyme Panel. The mice used in this study were 6-12 week-old female C57BL/6/027 mice (Charles River Laboratories, Wilmington, Mass., USA). The mice were administered treatment via tail vein injection. After 24 h, complete blood count (CBC), and liver enzyme levels were measured. Blood for CBC was collected by saphenous vein collection, mixed with EDTA, and analyzed with a hematology analyzer for white blood cells (WBC), red blood cells (RBC), hemoglobin (Hgb), platelets (Plt) and hematocrit (HCT). For the liver enzyme panel, serum was isolated from blood and sent to IDEXX Laboratories, Inc. (Westbrook, Me.) for alkaline phosphatase (ALP), aspartate aminotransferase (AST), alanine aminotransferase (ALT), and total bilirubin analysis.
Complete blood count and liver enzyme panel of DOX/DNA and DOX. A complete blood count and liver enzyme panel were conducted in C57BL/6 mice treated with 20 mg/kg DOX, 20 mg/kg DOX equiv. of DOX/DNA, PBS, or 120 mg/kg DNA, n=3. […] After 24 h p.i., complete blood count (CBC), and liver enzyme levels were measured. Blood was collected by saphenous vein collection, mixed with EDTA, and analyzed with a hematology analyzer for white blood cells (WBC), red blood cells (RBC), hemoglobin (Hgb), platelets (Plt) and hematocrit (HCT). […]

[8] = Titration of DOX, DNA and DOX/DNA; format: physicochemical
Experimental: Titration of DOX, DNA, and DOX/DNA using a weak base. DOX, DNA or DOX/DNA were made in water at an initial volume of 1 mL. DOX equiv. at 600 μg/mL. The pH was then brought down below 2 with 1 M HCl, then the pH was adjusted higher using small volumes (100 μL or 20 μL) of 0.1 M NaOH.

Row | Substance | Stability in water or PBS [1] | Degradation in serum [2] | IC50 (EL4 cells [3]; 24 h incubation) | IC50 (EL4 cells [3]; 24 h incubation, read-out: IC50) | IC50 (EL4 cells [3]; 48 h incubation) | IC50 (EL4 cells [3]; 72 h incubation) | Blood circulation residence half-life T1/2 ([4]; 20 mg/kg DOX or DOX equiv. i.v., n=3) | Time of absorption by the tissue ([4]; 20 mg/kg i.v.) | Acute toxicity [5] | Cellular uptake pathway (EL4 cells [6]) | Effect on circulating blood cells and liver enzymes [7] | pKa (amine) [8] | pKa (estimated) [8] | pKa (phenol) [8]
1 | Deoxyribonucleic acid [DNA] | largely stable | degraded serum in a time dependent manner; also recorded: degraded overtime | – | – | – | – | – | – | – | – | – | – | – | –
2 | Doxorubicin | – | – | 0.313 µg/mL | 576 nM | 0.093 µg/mL | 0.048 µg/mL | 3 min | ~15 min | acute toxicity (cardiac arrest) | primarily via membrane fusion | greater impact | 8.46 | 9.46 | 7.34
